Laboratory results published in patent US9624211B2, “Anti-cancer compounds” (Board of Regents, The University of Texas System, priority 2013, dated 2017).

How the values were obtained:
[1] = tested on: EGF-mediated Akt phosphorylation and activation; experiment: EGF-mediated Akt phosphorylation, immunoblotting; assay type: cell-based; conditions: various cancer cell lines
Text: (§1) Cells were lysed with RIPA buffer in the presence of protease inhibitor cocktail (Roche). The following antibodies were used for immunoblotting analysis: anti-Skp2 (Invitrogen), anti-Xpress (Invitrogen), anti-p27 (BD transduction laboratories), anti-p21 (Santa Cruz), anti-β-actin (Sigma), anti-α-tubulin (Sigma), anti-phospho-Akt (Thr308) (Cell Signaling), anti-phospho-Akt (Ser473) (Cell Signaling), and anti-HA (Convance). For immunohistochemistry, tissues were fixed in 10% formalin and embedded in paraffin in accordance with standard procedures. Sections were stained with anti-Skp2 (Invitrogen), anti-p27 (Epitomics), anti-phosphoAkt (SerS473) (Cell signaling), anti-Glut1 (Abcam), and anti-Ki67 (Abcam). TUNEL staining was performed by using in situ cell death detection kit-POD (Roche).

A549 xenograft tumors = experiment: A549 tumor xenograft in nude mice; assay type: in vivo; conditions: IP injection
Protocol: Nude mice bearing PC3 or A549 xenograft tumors (around 100 mm^3) were administrated with vehicle or 80 mg/kg compound #25 on a daily basis. Tumor size was measured weekly with a caliper, and tumor volume was determined with the standard formula: L×W2×0.52, where L is the longest diameter and W the shortest diameter.

prostate cancer cells [2] = experiment: Cell survival assay in combination with Dox or CPA; assay type: cell-based; conditions: combination with doxorubicin or cyclophosphamide
Protocol: (§2) For Skp2 inhibitor administration, 5-10×10^3 of cells with were seeded in 12 wells in triplicate, 24 h later, treated with compound #25 (refreshed every two days). Four days later, cells were harvested, stained with trypan blue, and viable cells were counted directly under the microscope using hemocytometer. For doxorubicin treatment, 8×10^3 of PC3 cells with were seeded in 12 wells in triplicate, 24 h later, treated with various dose of compound #25 in the presence or absence of 10 nM doxorubicin or 25 ng/ml cyclophosphamide for four and three days, respectively (refreshed every two days). After treatment, cells were harvested, stained with trypan blue, and viable cells were counted directly under the microscope using hemocytometer. Cellular senescence was determined by assessing SA-b-gal activity using senescence detection kit according to manufacturers' standard procedures (Calbiochem).

FBW7 = biological target: T1, FBW7 (Homo sapiens, UniProt Q969H0); experiment: In vivo ubiquitination assay, FBW7 substrates; assay type: cell-based; conditions: in the presence of proteasome inhibitor
T1 construct: expressed in transfected cells; host or cells: 293T
T1 sequence (Q969H0 whole entry, species assumed): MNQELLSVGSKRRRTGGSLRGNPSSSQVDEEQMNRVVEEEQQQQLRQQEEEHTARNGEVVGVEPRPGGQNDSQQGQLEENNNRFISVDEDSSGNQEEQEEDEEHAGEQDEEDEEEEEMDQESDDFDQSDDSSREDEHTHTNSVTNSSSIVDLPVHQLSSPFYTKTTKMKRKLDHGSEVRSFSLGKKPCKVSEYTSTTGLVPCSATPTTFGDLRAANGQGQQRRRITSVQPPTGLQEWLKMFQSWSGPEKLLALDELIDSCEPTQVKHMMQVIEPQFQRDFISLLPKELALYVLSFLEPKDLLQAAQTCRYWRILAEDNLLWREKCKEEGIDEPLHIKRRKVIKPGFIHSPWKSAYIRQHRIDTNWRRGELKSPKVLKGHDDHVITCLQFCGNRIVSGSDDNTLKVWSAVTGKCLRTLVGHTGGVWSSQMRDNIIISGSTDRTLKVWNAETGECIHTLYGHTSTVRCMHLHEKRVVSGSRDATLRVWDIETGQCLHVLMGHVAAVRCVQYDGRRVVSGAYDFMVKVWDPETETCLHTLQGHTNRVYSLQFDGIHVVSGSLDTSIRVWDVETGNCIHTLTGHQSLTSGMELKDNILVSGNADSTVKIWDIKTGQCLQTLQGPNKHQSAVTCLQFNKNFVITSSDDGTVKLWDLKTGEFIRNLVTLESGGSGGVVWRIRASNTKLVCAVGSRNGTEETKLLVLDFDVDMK
Protocol: In vivo and in vitro ubiquitination assays were performed as described with modification (Lin et al., 2009; Yang et al., 2009). For in vitro ubiquitination assay, recombinant GST-Akt proteins were expressed, purified and eluted from the bacterial lysates of BL21 competent cells. Flag-Skp2 SCF complex were expressed in 293T cells, immunoprecipitated by anti-Flag antibody, and eluted from Protein A/G beads using Flag peptides according to manufacturers' standard procedures. Purified GST-Akt and Flag-SCF proteins were incubated for 3 h at 37° C. in the absence and presence of Skp2 inhibitor. After incubation, protein mixtures were diluted in E1A Buffer and the supernatant fluid was precleared with Protein A/G beads for 1 h, and immunoprecipitated overnight with anti-Flag antibody, after which Protein A/G beads were added for an additional 1 h. Beads were washed 4 times with E1A Buffer. Proteins were eluted in SDS-sample buffer and subjected to immunoblotting analysis. For in vivo ubiquitination assay, 293T cells were transfected with the indicated plasmids and cultured in the absence or presence of Skp2 inhibitor for 48 h. 6 h before harvest, cells were cultured in the presence of MG132. After cell harvest, cells were lysed by the denatured buffer (6M guanidine-HCl, 0.1M Na2HPO4/NaH2PO4, 10 mM imidazole). […]

[3] = biological target: T2, Skp1/Skp2 binding interaction (Homo sapiens, UniProt Q13309); experiment: In vitro Skp2-Skp1 binding assay (GST pull-down)
T2 construct: made in house; host or cells: GST-Skp1: E. coli BL21; Skp2: in vitro translation
T2 sequence (Q13309 whole entry): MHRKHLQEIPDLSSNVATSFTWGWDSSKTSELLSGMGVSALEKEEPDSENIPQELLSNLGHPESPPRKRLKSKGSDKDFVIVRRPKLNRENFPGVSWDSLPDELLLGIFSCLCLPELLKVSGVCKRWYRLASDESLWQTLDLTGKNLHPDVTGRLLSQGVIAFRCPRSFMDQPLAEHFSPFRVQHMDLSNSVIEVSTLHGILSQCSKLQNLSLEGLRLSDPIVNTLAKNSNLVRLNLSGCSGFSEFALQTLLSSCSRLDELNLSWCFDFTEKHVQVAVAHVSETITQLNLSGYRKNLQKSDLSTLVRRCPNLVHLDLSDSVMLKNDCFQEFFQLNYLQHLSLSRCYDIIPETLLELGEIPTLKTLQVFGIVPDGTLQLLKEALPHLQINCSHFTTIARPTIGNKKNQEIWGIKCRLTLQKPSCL
Protocol: For in vitro GST-Skp1 and Skp2 interaction, GST-Skp1 proteins purified from the bacterial lysates of BL21 competent cells transformed with pGEX-4X1-Skp1 using the Glutathione-Agarose beads according to the manufacturer's standard procedures. The GST-Skp1 proteins bound to glutathione Sepharose beads (Amersham Biosciences) were then incubated with the in vitro translated [35^S]-Skp2 for 2 hours at 4° C. in the interaction buffer with or without compound #25 (20 mM HEPES, PH 7.9, 150 mM KCl. 5 mM EDTA, 0.5 mM DTT, 0.1% (v/v) Nonidet p-40, 0.1% (w/v) BSA, 1 mM PMSF, and 10% Glycerol), washed by the NETN buffer (20 mM Tris, pH 8.0, 100 mM NaCl, 6 mM MgCl2, 1 mM EDTA, 0.5% Nonidet P-40, 1 mM DTT, 8% glycerol, 1 mM PMSF) 4 times, and subjected to 8% SDS-PAGE, followed by autoradiography.
Below are the original lead compound and 11 similar compounds that were tested for their ability to block the Skp1/Skp2 binding interaction in an in vitro assay. The quantification was made on western blot/images, and the percentages represent the amount of intact Skp1/Skp2 remaining after treatment. In vitro binding assays were performed. For in vitro GST-Skp1 and Skp2 interaction, GST-Skp1 proteins purified from the bacterial lysates of BL21 competent cells transformed with pGEX-4X1-Skp1 using the Glutathione-Agarose beads were performed according to the manufacturer's standard procedures. The GST-Skp1 proteins bound to glutathione Sepharose beads (Amersham Biosciences) were then incubated with the in vitro translated [35^S]-Skp2 for 2 hours at 4° C. in the interaction buffer with or without lead compound and 11 similar compounds (20 mM HEPES, PH 7.9, 150 mM KCl. 5 mM EDTA, 0.5 mM DTT, 0.1% (v/v) Nonidet p-40, 0.1% (w/v) BSA, 1 mM PMSF, and 10% Glycerol), washed by the NETN buffer (20 mM Tris, pH 8.0, 100 mM NaCl, 6 mM MgCl2, 1 mM EDTA, 0.5% Nonidet P-40, 1 mM DTT, 8% glycerol, 1 mM PMSF) 4 times, and subjected to 8% SDS-PAGE, followed by autoradiography. The data presented in Table 1 below was obtained using the Skp1/Skp2 binding affinity assay. The quantification percentage results listed below are based on the western blot results.

prostate cancer cells [4] = experiment: Cell apoptosis assay (Annexin-V, flow cytometry); assay type: cell-based
Protocol: Prostate cancer cells were treated with vehicle (DMSO) or Skp2 inhibitor for 3 days, and collected and labeled with Annexin-V-FITC, followed by flow cytometry analysis. The Annexin-V+ and […] cells indicates apoptotic cell population (Q4).

[5] = tested on: tumorigenic lung cancer cells; experiment: Cell survival assay, lung cancer cells and normal fibroblasts; assay type: cell-based
Protocol: as §2

Skp2 protein expression = experiment: Skp2 protein expression, immunoblotting; assay type: cell-based; conditions: higher dosage (20 μM)
Text: as §1

## CCc1cc2c(=O)c(-c3nc4ccccc4s3)coc2c(CN2CCCCC2)c1O [compound #25, 3-(1,3-benzothiazol-2-yl)-6-ethyl-7-hydroxy-8-(1-piperidinylmethyl)-4H-chromen-4-one]
[1]
  EGF-mediated Akt phosphorylation and activation: profoundly inhibited
A549 xenograft tumors
  lung tumor growth in vivo: potent effect
Prostate cancer cells [2]
  sensitization to Dox and CPA: increased the efficacy of Dox and CPA
FBW7
  FBW7-mediated ubiquitination (c-Jun, MCL-1): no appreciable effect
[3]; 5 μM
  disruption of Skp2-Skp1 interaction: completely disrupt Skp2-Skp1 interaction
[3]; WT Skp2, FIG. 2D
  interaction between WT Skp2 and Skp1: prevented the interaction between WT Skp2 and Skp1
[3]; amount of intact Skp1/Skp2 remaining after treatment, quantified on western blot/images
  Normalized w/ vehicle treatment: 10%
Prostate cancer cells [4]
  cell apoptosis: elicited cell apoptosis
[5]
  cytotoxicity, lung cancer cells over lung fibroblast: favorably triggered cytotoxicity in tumorigenic lung cancer cells over non-tumorigenic lung fibroblast
Skp2 protein expression
  Skp2 protein expression: downregulated Skp2 protein expression
